Test results reported in patent US4338302A, “Herbicolin and microbiological method for the preparation thereof” (priority 1979, dated 1982).
Where a SMILES comes first, the peptide text is derived from it. [ ]: non-standard residue; d: D form. Phe(ol) = N[C@H](CO)Cc1ccccc1; Aib = CC(C)(N)C(=O)O

Legend:
Neurospora crassa [1] = assay: Comparative plate diffusion test with membrane-modifying peptide antibiotics (Example 5 (2)); format: cell-based; settings: 10 μg/plate; in words
Method: (§1) Respectively, 10 μg of the corresponding antibiotics is pipetted in the form of a methanolic solution on the filter plates and, after drying, placed on a nutrient substrate inoculated with Neurospora crassa spores.
(2) In the same manner, various membrane-modifying peptide antibiotics are comparison-tested with herbicolin A:
Trichotoxin A 40, Suzukazillin, Alamethicin F 50, and herbicolin A, respectively, 10 μg/plate.

Neurospora crassa [2] = assay: Comparative plate diffusion test with other conventional antifungal substances (Example 5 (1)); format: cell-based
Method: as §1

Question: How did the inhibition zone (Neurospora crassa [1]) turn out when CC(=O)NC(C)(C)C(=O)N1CCC[C@H]1C(=O)NC(C)(C)C(=O)N[C@@H](C)C(=O)NC(C)(C)C(=O)N[C@@H](C)C(=O)N[C@@H](CCC(N)=O)C(=O)NC(C)(C)C(=O)N[C@H](C(=O)NC(C)(C)C(=O)NCC(=O)N[C@@H](CC(C)C)C(=O)NC(C)(C)C(=O)N1CCC[C@H]1C(=O)N[C@H](C(=O)NC(C)(C)C(=O)NC(C)(C)C(=O)N[C@@H](CCC(=O)O)C(=O)N[C@@H](CCC(N)=O)C(=O)N[C@H](CO)Cc1ccccc1)C(C)C)C(C)C [Alamethicin] (Ac-[Aib]P[Aib]A[Aib]AQ[Aib]V[Aib]GL[Aib]PV[Aib][Aib]EQ[Phe(ol)]) was run?
Answer: The inhibition zone was “only a weak inhibition zone”.

Question: For C[C@@H]1[C@H](O)[C@@H](C)/C=C/C=C/C=C/C=C/C=C/C=C/C=C/[C@H](O[C@@H]2O[C@H](C)[C@@H](O)[C@H](N)[C@@H]2O)C[C@@H]2O[C@](O)(C[C@@H](O)C[C@@H](O)[C@H](O)CC[C@@H](O)C[C@@H](O)CC(=O)O[C@H]1C)C[C@H](O)[C@H]2C(=O)O [amphotericin], which zone of inhibition at 10 µg/disc (Neurospora crassa [2]; Neurospora crassa, 18 h, read-out: inhibition zone) is on record?
Answer: The zone of inhibition at 10 µg/disc was ~10 mm.

Question: COC1=CC(=O)C[C@@H](C)[C@]12Oc1c(Cl)c(OC)cc(OC)c1C2=O [griseofulvin] was tested. Which inhibition zone (Neurospora crassa [2]; 10 μg on filter plate, 18 hours, 27° C.) did it give?
Answer: The inhibition zone was “no inhibition zone”.
